From US20250325565A1, “ERAVACYCLINE FOR TREATING CANCER” (B. G. NEGEV TECHNOLOGIES AND APPLICATIONS LTD., priority 2022, published 2025)

Tests used:
Format in all cases: cell-based, human
BxPC-3 cells = test: XTT cell proliferation assay, BxPC-3
Procedure: (§1) Human PDAC (AsPC-1, BxPC-3, Panc-1 scr, Panc-1 p53-R273H knock-out (KO) hTERT-HPNE), breast (MCF-7), lung (A549), and colon (HT-29) cancer cell lines were purchased from the American Type Culture Collection (ATCC). The MCF-7, A549, Panc-1 scr, Panc-1 p53 KO and HT-29 cell lines were grown in Dulbecco's Modified Eagle Medium (DMEM; Biological Industries, Beit HaEmek (BI), Israel), and the BxPC-3 and AsPC-1 cell lines were cultured in Roswell Park Memorial Institute-1640 (RPMI-1640; BI, Israel) medium. All media was supplemented with 10% fetal bovine serum (FBS), 200 μM L-glutamine (BI), and 1% penicillin-streptomycin (BI). Cells were cultured at 37° C. in a 5% CO2 humidified incubator.
(§2) Eravacycline dihydrochloride (MedChem Express (MCE)) was dissolved in […] (DDW). Tigecycline (MCE) and omadacycline (MCE) were dissolved in dimethyl sulphoxide (DMSO). All drugs were prepared as 100 mM stock solutions. All cell lines were treated with DMSO as a control (less than 0.1%) or tigecycline, omadacycline, or eravacycline (at the indicated concentrations) for 72 hours. Cell viability and proliferation were determined using the XTT Cell Proliferation Assay Kit (Promega).
(§3) The XTT Cell Proliferation Assay Kit was used to determine cell viability and proliferation. Cells were seeded in 96-well plates at a density of 4,000 cells per well and allowed to attach overnight in a 5% CO2 incubator at 37° C. After overnight incubation, cells were treated with culture medium or in a medium containing tigecycline, omadacycline, or eravacycline at different concentrations (1, 2, 5, 10, 25, and 50 μM) for the indicated time period. Then, 50 μl XTT reaction solution (0.1 ml activation solution+5 ml XTT reagent solution) was added to each well, and the plate was incubated at 37° C. for two hours. After shaking the plate gently to distribute the dye in the wells, the absorbance was measured with a spectrophotometer (Bio-RadiMark Microplate Absorbance reader) at a wavelength of 450 nm and a reference wavelength of 655 nm.
(§4) To evaluate the half maximal inhibitory concentration (IC50) of tetracycline derivatives on five different cell lines (MCF-7, A549, HT-29, BxPC-3, and AsPC-1), the cells were seeded and allowed to attach overnight. All cells were washed with phosphate buffered saline (PBS) and then cultured in fresh media containing the drugs tigecycline, omadacycline, or eravacycline at an increasing concentration (0-50 μM) for 72 h. Inhibition of cell proliferation was determined using the XTT Cell Proliferation Assay Kit.
(§5) To investigate the effect of tetracycline derivatives on cell proliferation in human breast, lung, colon, and PDAC cells, the inventors treated all cell lines (MCF-7, A549, HT-29, BxPC-3, and AsPC-1) with different concentrations of tigecycline, omadacycline, and eravacycline (1, 2, 5, 10, 25, and 50 μM), with medium used as a control, for 72 h. Then, an XTT assay was performed to determine the growth inhibition rate.

POLK = test: Western blot of POLK protein expression in BxPC-3 cells; conditions: BxPC-3, 72 h, increasing concentrations
p53 (mutated in BxPC-3) = test: Western blot of p53 protein expression in BxPC-3 cells; conditions: BxPC-3, 72 h, increasing concentrations
AsPC-1 cells = test: XTT cell proliferation assay, AsPC-1
Procedure: as §1, §2, §3, §4, §5

A549 cells = test: XTT cell proliferation assay, A549; conditions: A549, 72 h, 1-50 μM
Procedure: as §1, §2
(§6) The XTT Cell Proliferation Assay Kit was used to determine cell viability and proliferation. Cells were seeded in 96-well plates at a density of 4,000 cells per well and allowed to attach overnight in a 5% CO2 incubator at 37° C. […] After shaking the plate gently to distribute the dye in the wells, the absorbance was measured with a spectrophotometer (Bio-RadiMark Microplate Absorbance reader) at a wavelength of 450 nm and a reference wavelength of 655 nm.
(§7) To evaluate the half maximal inhibitory concentration (IC50) of tetracycline derivatives on five different cell lines (MCF-7, A549, HT-29, BxPC-3, and AsPC-1), the cells were seeded and allowed to attach overnight. […] Inhibition of cell proliferation was determined using the XTT Cell Proliferation Assay Kit. […]

MCF-7 cells = test: XTT cell proliferation assay, MCF-7; conditions: MCF-7, 72 h, 1-50 μM
Procedure: as §1, §2, §6, §7

HT-29 cells = test: XTT cell proliferation assay, HT-29; conditions: HT-29, 72 h, 1-50 μM
Procedure: as §1, §2, §6, §7

## COc1cccc2c1C(=O)c1c(O)c3c(c(O)c1C2=O)C[C@@](O)(C(=O)CO)C[C@@H]3O[C@H]1C[C@H](N)[C@H](O)[C@H](C)O1 [doxorubicin]
BxPC-3 cells; BxPC-3, 1 μM, 72 h
  decrease in cell growth: 67%
BxPC-3 cells; BxPC-3, 10 μM, 72 h
  decrease in cell growth: 94%
POLK
  POLK protein expression vs control: Neither gemcitabine nor doxorubicin reduced
p53 (mutated in BxPC-3)
  p53 protein expression vs control: Neither gemcitabine nor doxorubicin reduced

## CN(C)c1cc(CNCC(C)(C)C)c(O)c2c1C[C@H]1C[C@H]3[C@H](N(C)C)C(O)=C(C(N)=O)C(=O)[C@@]3(O)C(O)=C1C2=O [omadacycline]
BxPC-3 cells; BxPC-3, 72 h, 1-50 μM
  effect on cell survival / viability (in words): no significant effect on cell survival
AsPC-1 cells; AsPC-1, 72 h, 1-50 μM
  effect on cell survival / viability (in words): no significant effect on cell survival
A549 cells
  effect on cell survival / proliferation (in words): no significant effect on cell survival
MCF-7 cells
  effect on cell survival / proliferation (in words): no significant effect on cell survival
HT-29 cells
  effect on cell survival / proliferation (in words): no significant effect on cell survival

## Nc1ccn([C@@H]2O[C@H](CO)[C@@H](O)C2(F)F)c(=O)n1 [gemcitabine]
BxPC-3 cells; BxPC-3, 1 μM, 72 h
  decrease in cell growth: 77%
BxPC-3 cells; BxPC-3, 10 μM, 72 h
  decrease in cell growth: 80%
POLK
  POLK protein expression vs control: Neither gemcitabine nor doxorubicin reduced
p53 (mutated in BxPC-3)
  p53 protein expression vs control: Neither gemcitabine nor doxorubicin reduced

## CN(C)c1cc(NC(=O)CNC(C)(C)C)c(O)c2c1C[C@H]1C[C@H]3[C@H](N(C)C)C(O)=C(C(N)=O)C(=O)[C@@]3(O)C(O)=C1C2=O [tigecycline]
BxPC-3 cells; BxPC-3, 72 h, concentration-dependent, 1-50 μM
  suppression of proliferation, up to: 60-65%
BxPC-3 cells; Homo sapiens, BXPC-3, 72 h, BxPC-3, 25 μM, 72 h, read-out: decrease in cell growth / viability
  cytotoxicity at 25 µM: 60%
BxPC-3 cells; Homo sapiens, BXPC-3, 72 h, read-out: IC50, inhibition of cell proliferation
  IC50: 9.9 µM
AsPC-1 cells; AsPC-1, 72 h, concentration-dependent, 1-50 μM
  suppression of proliferation, up to: 60-65%
AsPC-1 cells; Homo sapiens, ASPC1, 72 h, read-out: IC50, inhibition of cell proliferation
  IC50: 4.58 µM
A549 cells; concentration-dependent
  suppression of proliferation, up to: 60-65%
MCF-7 cells
  effect on cell survival / proliferation (in words): no significant effect
HT-29 cells
  effect on cell survival / proliferation (in words): no significant effect
